{"source": "patent US8420594B2", "about": "“Inhibitors of MRP4 and agents stimulating MRP4 activity for the treatment of cardiac disorders” (INSERM (Institute de la Sante et de la Recherche Medicale), priority 2008, dated 2013)", "key": {"PDE3 [1]": {"test_system": "PDE3", "quoted_text": "Cardiac ventricular myocytes were enzymatically dissociated using standard procedures (Fauconnier, J. et al. Diabetes, 2007). Briefly, mice were euthanized by cervical dislocation, the heart rapidly excised and retrogradely perfused at 37° C. for 6-8 min with a modified tyrode solution (in mM: NaCl113, KCL 4.7, KH2PO4 0.6, Na2HPO4 0.6, MgSO4 1.2, NaHCO3 12, KHCO3 10, HEPES10 Taurine 30, pH=7.4) containing 1 mg.ml-1 of liberase (Roche, France). Isolated myocytes were then transferred to the same solution, free of enzyme, containing 1 mM CaCl2.\nCells were loaded for 30 min at RT with Fluo-4 AM (5 μmol/l, Molecular Probes). Cells were then field-stimulated at 1 Hz with a 1-2 ms current pulse delivered via two platinum electrodes, one on each side of the perfusion chamber. Changes in Fluo-4 fluorescence were recorded using an LSM510 Meta Zeiss confocal microscope equipped with a 63× water immersion objective (NA: 1.2). Measurements were performed in line-scan mode (1.5 ms/line) and scanning was carried out along the long axis of the cell. An excitation wavelength of 488 nm was used, and emitted light was collected through a 505 nm long pass filter. The laser intensity used (3-6% of the maximum) had no noticeable deleterious effect on the fluorescence signal or on cell function over the time-course of the experiment. To enable comparisons between cells, the change in fluorescence (ΔF) was divided by the fluorescence detected immediately before the 0.5 Hz stimulation pulse (F0)."}, "PDE3 [2]": {"test_system": "PDE3", "remark": "listed apart in the source", "quoted_text": "Briefly, mice were euthanized by cervical dislocation, the heart rapidly excised and retrogradely perfused at 37° C. for 6-8 min with a modified tyrode solution (in mM: NaCl113, KCL 4.7, KH2PO4 0.6, Na2HPO4 0.6, MgSO4 1.2, NaHCO3 12, KHCO3 10, HEPES10 Taurine 30, pH=7.4) containing 1 mg.ml-1 of liberase (Roche, France). Isolated myocytes were then transferred to the same solution, free of enzyme, containing 1 mM CaCl2.\nIn addition, we have measured the effect of PDE3 inhibition by cilostamide on the contractility of ventricular myocytes isolated from WT and MRP4 KO mice."}, "β-adrenergic system": {"test_system": "β-adrenergic system", "experiment": "Chronic β-adrenergic stimulation, isoproterenol-induced cardiac hypertrophy", "type": "in vivo", "details": "20 μg/g/day for 2 weeks by miniosmotic pumps, 3 month-old MRP4 KO vs WT mice", "procedure": "Animal models. MRP4 ablated mice (MRP4 KO) were generated and genotyped as described (Leggas, M. et al. Mol Cell Biol 24, 7612-21 (2004). Wild-type and homozygous MRP4-KO mice (8-10 weeks of age) were subjected to left ventricular pressure overload by transverse aortic constriction (TAC), as previously described (Rockman, et al. Proc Natl Acad Sci USA 88, 8277-81 (1991). Five weeks after the procedure, the animals were sacrified and heart and body weights were determined. As a model of β-adenergic overstimulation miniosmotic pumps (Alzet) containing (−)-isoproterenol-bitartrate (Sigma Aldrich) (delivering 20 μg/g/day each) were implanted subcutaneously into 10-12 weeks old animals. Determination of heart weights and analysis of gene expression were carried out after 14 days of continuous infusion. Finally, male MRP4 KO mice and WT littermate were subjected to voluntary exercise. The animals were 10-12 weeks at the start of the study. Individual animals were housed in a cage with free access to a 11.5-cm-diameter running wheel with a 5.0-cm-wide running surface equipped with a digital magnetic counter (model BC 1200, Sigma Sport) that is activated by wheel rotation. Daily exercise values for time and distance run were recorded for each exercised animal throughout the duration of the exercise period. […]"}, "PDE3 [3]": {"test_system": "PDE3", "experiment": "Chronotropic effect of PDE3 inhibitor, telemetric ECG (RR interval) in WT and MRP4 KO mice", "type": "in vivo", "details": "for heart rate: wild-type mice", "procedure": "Animal models. MRP4 ablated mice (MRP4 KO) were generated and genotyped as described (Leggas, M. et al. Mol Cell Biol 24, 7612-21 (2004). Wild-type and homozygous MRP4-KO mice (8-10 weeks of age) were subjected to left ventricular pressure overload by transverse aortic constriction (TAC), as previously described (Rockman, et al. Proc Natl Acad Sci USA 88, 8277-81 (1991). Five weeks after the procedure, the animals were sacrified and heart and body weights were determined. As a model of β-adenergic overstimulation miniosmotic pumps (Alzet) containing (−)-isoproterenol-bitartrate (Sigma Aldrich) (delivering 20 μg/g/day each) were implanted subcutaneously into 10-12 weeks old animals. Determination of heart weights and analysis of gene expression were carried out after 14 days of continuous infusion. Finally, male MRP4 KO mice and WT littermate were subjected to voluntary exercise. The animals were 10-12 weeks at the start of the study. Individual animals were housed in a cage with free access to a 11.5-cm-diameter running wheel with a 5.0-cm-wide running surface equipped with a digital magnetic counter (model BC 1200, Sigma Sport) that is activated by wheel rotation. Daily exercise values for time and distance run were recorded for each exercised animal throughout the duration of the exercise period.\nTelemetry studies. Long-term telemetric ambulatory ECG measurements were performed in wild type and knock out male mice at 3 months of age. Six-lead restrained ECG monitoring of conscious animals (hamsters and mice) were performed with EasyCG® tools system (EMKA technologies, France) formed by the four sensors of ecgTUNNEL® system platform and a translucent animal sizefitting half-tunnel. Each animal was put inside the tunnel, which was then closed, assuring the animal to be properly restrained. The four wires of the platform were connected to a wireless transmitter and amplifier system (emkaPACK®, EMKA technologies). Telemetric ECG tracing were obtained in conscious mice during quiet awake time at daytime. To minimize the effects of stress, animals were allowed to stay in the restraining system for 5 min before starting ECG recordings. […] Six leads of ECG were recorded during 15 to 20 min using specific software (iox®, EMKA technologies): three leads were measured (L1, L2, L3), and three were calculated (aVR, aVL, aVF). Dedicated software (Ecg-auto®, EMKA technologies) was used to measure RR interval, SDNN and HRV index. If needed, raw data were submitted to a 50-Hz notch filter with an automatic setting determined by the software."}}, "note": "Read-outs that look alike come from different tables or passages of the source."}
{"smiles": "CN(C(=O)CCCOc1ccc2[nH]c(=O)ccc2c1)C1CCCCC1", "note": "[Cilostamide]", "values": [{"measurement": "Ca2+ transient amplitude (ΔF/F0)", "setting": "PDE3 [1]; MRP4 KO mice myocytes", "value": "increased"}, {"measurement": "Ca2+ transient half width", "setting": "PDE3 [1]; MRP4 KO mice myocytes", "value": "decreased"}, {"measurement": "Ca2+ transient rate of decay t", "setting": "PDE3 [1]; MRP4 KO mice myocytes", "value": "decreased"}, {"measurement": "Ca2+ transient rate of rise (ΔF/F0.ms−1)", "setting": "PDE3 [1]; MRP4 KO mice myocytes", "value": "decreased"}, {"measurement": "Ca2+ transient", "setting": "PDE3 [1]; myocytes isolated from WT heart", "value": "no effect"}, {"measurement": "contractility increase, MRP4 KO vs WT", "setting": "PDE3 [2]; MRP4 KO compared to WT", "value": "significantly more"}, {"measurement": "contractility of ventricular myocytes", "setting": "PDE3 [2]; MRP4 KO mice myocytes", "value": "increased"}, {"measurement": "contractility of ventricular myocytes", "setting": "PDE3 [2]; WT mice myocytes", "value": "increased"}]}
{"smiles": "CC(C)NC[C@H](O)c1ccc(O)c(O)c1", "note": "[Isoproterenol, (−)-isoproterenol-bitartrate]", "values": [{"measurement": "cardiac hypertrophy (HW/TL ratio)", "setting": "β-adrenergic system", "value": "significantly more important"}]}
{"smiles": "Cc1[nH]c(=O)c(C#N)cc1-c1ccncc1", "note": "[Milrinone]", "values": [{"measurement": "RR interval", "setting": "PDE3 [3]; 0.1 mg/kg, MRP4 KO mice", "value": "significant decrease"}, {"measurement": "heart rate", "setting": "PDE3 [3]; 0.1 mg/kg", "value": "not changing heart rate"}, {"measurement": "decrease in RR interval", "setting": "PDE3 [3]; 1 mg/kg, MRP4 KO mice compared to wild-type mice", "value": "significantly higher"}, {"measurement": "heart rate", "setting": "PDE3 [3]; 1 mg/kg", "value": "acceleration of heart rate"}, {"measurement": "chronotropic dose-effect", "setting": "PDE3 [3]; MRP4 KO mice compared to wild-type", "value": "dramatically enhanced"}]}
